Reference: US20060159676A1, “Methods for modulating angiogenesis, lymphangiogenesis, and apoptosis with apelin compositions” (priority 2005, published 2006)

How the values were obtained:
endothelial cells = details: apelin 10 ng/ml, after 48 hours serum starvation; VEGF 50 ng/ml as comparison
Protocol: To determine what effect, if any, apelin expression has on apoptosis, TUNEL assays were performed. […] Cells were stained with a DAPI stain (FIG. 21, Panels A, B, and C) or in the TUNEL assay which stains for broken DNA, indicating cells undergoing apoptosis (FIG. 21, Panels D, E, and F).

lymphatic vessels = experiment: In vivo lymphatic vessel branching assay, quail CAM; details: collagen disk with 50 ng apelin or 100 ng VEGF-C on CAM of 7 day quail embryos, 18 hours
Protocol: All experiments were carried out using chorioallantoic membranes (CAMs) of quail embryos. Quail embryos used for the lymphatic experiments were 7 days old. Collagen purified from rat tails (Bernanke and Markwald, 1982) was polymerized in 2 mm disks at a final concentration of approximately 1.6 mg/ml in standard phosphate buffered saline (PBS). The total volume of the collagen disk was approximately 10 μl. For experimental treatments, the collagen disks were supplemented with either 50 ng of apelin peptide or 100 ng of VEGF-C protein prior to polymerization at 37° C. for 30 minutes. The VEGF-C was a positive control for these experiments. (Recombinant Human VEGF-C (Cys156Ser), R&D Systems, cat # 752-vc). Apelin peptide was synthesized by Sigma-Genosys (>90% purity).
For lymphangiogenesis assays, the CAMs of 7 day quail embryos were exposed, in ovo, and the collagen disks were placed directly onto the surface of the CAM. […]
The samples were incubated with primary antibody (Prox1, Research Diagnostics, cat # RDI-102PA30, diluted to 2 μg/ml final concentration) for 4 hours at room temperature or overnight at 4° C. […] Both the lymphatic cell number as well as the number of lymphatic branches were determined.
Both blood vessels and lymphatic vessels were stained with the QH-1 antibody. […] The number of lymphatic vessels branching away from blood vessels (towards the collagen disk) were counted. […]

BAE/APJ#2 cells = details: 10 ng/ml in bottom chamber, 16 hours
Protocol: Bovine aortic endothelial cells (BAE) were cultured in DMEM supplemented with 10% fetal bovine serum (FBS) and penicillin/streptomycin. For generation of stable cell lines expressing APJ, the mouse APJ coding region was cloned into the pcDNA 3.1 vector downstream of the CMV promoter, in frame with a myc epitope at the C-terminal end of the protein, and upstream of the neomycin gene. Bovine aortic endothelial (BAE) cells were transfected with this construction using the Superfect transfection kit (Qiagen) and selected for resistance to G418 (600 μg/ml). Colonies were isolated and screened using RT-PCR for expression of mouse APJ and also by immunocytochemistry for expression of the myc epitope.
Cell migration assays were performed using Transwell cell culture migration chambers (Becton Dickinson) with 8 micron pore size. BAE/APJ#2 cells were plated in serum free conditions in 100 μl at a concentration of 1×10^5 ml in the upper chamber of the migration chamber. Following cell attachment to the membrane, 10 ng/ml of growth factor was added to the bottom chamber, in a total volume of 0.5 ml. […] Cells attached to the membrane in the lower chamber were stained with DAPI, and 3 random fields were counted for each experimental condition.

[1] = tested on: mouse endothelial cells (bEnd3); experiment: bEnd3 endothelial cell proliferation (BrdU incorporation); assay type: cell-based; details: apelin 10 ng/ml or VEGF 50 ng/ml; 0.1 ng/ml to 1 μg/ml (FIG. 17)
Protocol: Similar cellular proliferation assays were performed using mouse endothelial cells (bEnd3) that constitutively express APJ. […] SU1498 was included in proliferation cultures at a 25 μM concentration, and results were assayed using BrdU incorporation.
Proliferation inhibition experiments with the bEnd3 cells also were carried out using FGF (50 ng/ml) or the FGF pathway inhibitor SU5402 (FIG. 19). SU5402 was included in proliferation cultures at a 20 μM concentration, and results were assayed using BrdU incorporation.

## Apelin-13
Endothelial cells
  apoptosis (TUNEL staining): anti-apoptotic effect on endothelial cells, to the same extent as VEGF
Lymphatic vessels
  number of lymphatic vessels branching away from blood vessels: positive regulator of lymphatic branching angiogenesis
BAE/APJ#2 cells
  endothelial cell migration (cells per field): promotes endothelial cell migration
[1]
  cellular proliferation of endothelial cells: induces the cellular proliferation of endothelial cells
